This is an account of results in ChEMBL document CHEMBL1152812, “Novel trans-2-aryl-cyclopropylamine analogues as potent and selective dipeptidyl peptidase IV inhibitors” (Bioorg Med Chem, 2009).

pIC50: −log10 of the molar value. Where only a bound is given, the exact number is not on record here.

The target in one assay is Dipeptidyl peptidase 8 (Homo sapiens, UniProt Q6V1X1). Briefly: Inhibition of human DPP8.
Another assay concerns the target Dipeptidyl peptidase 2 (Homo sapiens, UniProt Q9UHL4). In words: Inhibition of human DPP2.
The next assay concerns the target T1, Prolyl endopeptidase FAP (Homo sapiens, UniProt Q12884).
T1 sequence (Q12884 whole entry): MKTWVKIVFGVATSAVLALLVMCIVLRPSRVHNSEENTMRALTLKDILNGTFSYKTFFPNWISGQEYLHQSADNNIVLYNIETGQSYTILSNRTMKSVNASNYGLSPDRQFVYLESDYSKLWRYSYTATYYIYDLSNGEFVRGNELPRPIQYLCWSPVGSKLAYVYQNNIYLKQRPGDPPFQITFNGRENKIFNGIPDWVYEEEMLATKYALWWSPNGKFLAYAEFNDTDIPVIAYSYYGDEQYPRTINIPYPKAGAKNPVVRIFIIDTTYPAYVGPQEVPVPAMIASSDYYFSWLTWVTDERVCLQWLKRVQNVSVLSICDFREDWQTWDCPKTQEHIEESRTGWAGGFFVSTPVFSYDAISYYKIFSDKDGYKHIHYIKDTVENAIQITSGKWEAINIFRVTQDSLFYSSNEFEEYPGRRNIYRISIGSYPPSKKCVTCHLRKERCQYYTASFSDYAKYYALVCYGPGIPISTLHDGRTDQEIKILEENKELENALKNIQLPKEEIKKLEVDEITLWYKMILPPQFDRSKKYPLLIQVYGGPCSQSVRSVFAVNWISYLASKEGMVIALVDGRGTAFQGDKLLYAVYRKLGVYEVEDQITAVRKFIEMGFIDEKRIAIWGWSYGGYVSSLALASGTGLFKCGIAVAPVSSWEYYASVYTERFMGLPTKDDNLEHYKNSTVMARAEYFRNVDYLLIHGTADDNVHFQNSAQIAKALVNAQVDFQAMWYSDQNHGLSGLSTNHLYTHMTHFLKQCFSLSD
Briefly: Inhibition of human FAP.

Sequence of Dipeptidyl peptidase 8 (Q6V1X1 whole entry): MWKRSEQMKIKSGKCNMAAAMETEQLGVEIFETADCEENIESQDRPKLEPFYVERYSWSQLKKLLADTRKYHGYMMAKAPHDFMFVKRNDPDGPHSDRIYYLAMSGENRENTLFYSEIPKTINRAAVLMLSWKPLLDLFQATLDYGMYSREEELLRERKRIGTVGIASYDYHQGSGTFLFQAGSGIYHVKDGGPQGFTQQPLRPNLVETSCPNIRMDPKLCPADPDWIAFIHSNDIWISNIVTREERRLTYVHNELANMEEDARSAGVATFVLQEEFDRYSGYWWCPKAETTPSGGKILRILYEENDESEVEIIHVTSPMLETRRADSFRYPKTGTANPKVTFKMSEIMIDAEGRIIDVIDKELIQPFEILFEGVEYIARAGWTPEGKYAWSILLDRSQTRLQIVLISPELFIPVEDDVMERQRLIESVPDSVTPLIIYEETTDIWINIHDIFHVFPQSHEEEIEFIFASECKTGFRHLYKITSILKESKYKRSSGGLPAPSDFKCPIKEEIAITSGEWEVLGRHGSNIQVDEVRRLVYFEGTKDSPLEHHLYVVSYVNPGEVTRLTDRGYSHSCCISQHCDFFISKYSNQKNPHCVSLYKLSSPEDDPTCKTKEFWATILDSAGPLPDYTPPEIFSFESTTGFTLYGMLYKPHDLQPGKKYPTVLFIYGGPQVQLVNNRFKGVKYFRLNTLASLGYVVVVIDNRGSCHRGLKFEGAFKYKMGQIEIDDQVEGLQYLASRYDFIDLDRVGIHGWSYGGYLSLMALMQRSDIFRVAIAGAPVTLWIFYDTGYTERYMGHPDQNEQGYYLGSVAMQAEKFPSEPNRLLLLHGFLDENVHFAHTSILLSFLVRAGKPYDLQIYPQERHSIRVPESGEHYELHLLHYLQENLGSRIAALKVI

As usually defined, the pIC50 is −log10 of the IC50, conventionally taken in molar units. On to `CCOc1cccc([C@H]2C[C@@H]2NC(=O)CC(C)(C)NCC(=O)N2C[C@@H](F)C[C@H]2C#N)c1`, for which the pIC50 at Dipeptidyl peptidase 8 and at Dipeptidyl peptidase 2 was less than 4.70 each time.
With `CC(C)(CC(=O)N[C@H]1C[C@@H]1c1cccc(OC(F)(F)F)c1)NCC(=O)N1CCC[C@H]1C#N`, the pIC50 on Dipeptidyl peptidase 8, at Dipeptidyl peptidase 2 and against Prolyl endopeptidase FAP was less than 4.70 each time.
On to `CC(C)(CC(=O)N[C@H]1C[C@@H]1c1cccc(Cl)c1)NCC(=O)N1CCC[C@H]1C#N` (stereo in doubt; 22), for which the negative logarithm of the IC50 (pIC50) against Dipeptidyl peptidase 8, on Dipeptidyl peptidase 2 and at Prolyl endopeptidase FAP was less than 4.70 in each case.
Turning to `CC(C)(CC(=O)N[C@H]1C[C@@H]1c1cccc(OC(F)(F)F)c1)NCC(=O)N1C[C@@H](F)C[C@H]1C#N`, the negative logarithm of the IC50 (pIC50) on Dipeptidyl peptidase 8, at Dipeptidyl peptidase 2 and on Prolyl endopeptidase FAP was less than 4.70 each time.
As for `CC(C)(CC(=O)N[C@H]1C[C@@H]1c1cccc(F)c1)NCC(=O)N1CCC[C@H]1C#N`, the pIC50 against Dipeptidyl peptidase 8, against Dipeptidyl peptidase 2 and against Prolyl endopeptidase FAP was less than 4.70 in each case.
In the case of `CC(C)(CC(=O)N[C@@H]1C[C@H]1c1cccc(Cl)c1)NCC(=O)N1CCC[C@H]1C#N`, the negative-log IC50 (pIC50) against Dipeptidyl peptidase 8 is less than 4.70; against Dipeptidyl peptidase 2, 4.77; against Prolyl endopeptidase FAP, less than 4.70.
For `CC(C)(CC(=O)N[C@H]1C[C@@H]1c1cccc(Cl)c1)NCC(=O)N1CCC[C@H]1C#N` (stereo in doubt; 18k), the pIC50 at Dipeptidyl peptidase 8, against Dipeptidyl peptidase 2 and against Prolyl endopeptidase FAP was less than 4.70 each time.
Regarding `COc1ccc([C@H]2C[C@@H]2NC(=O)CC(C)(C)NCC(=O)N2CCC[C@H]2C#N)cc1OC`, the negative-log IC50 (pIC50) against Dipeptidyl peptidase 8, against Dipeptidyl peptidase 2 and against Prolyl endopeptidase FAP was less than 4.70 each time.
For `CC(C)(CC(=O)N[C@H]1C[C@@H]1c1ccc(F)cc1F)NCC(=O)N1CCC[C@H]1C#N`, the negative-log IC50 (pIC50) against Dipeptidyl peptidase 8, on Dipeptidyl peptidase 2 and at Prolyl endopeptidase FAP was less than 4.70 in each case.
Turning to `CC(C)(CC(=O)N[C@H]1C[C@@H]1c1ccccc1)NCC(=O)N1C[C@@H](F)C[C@H]1C#N`, the negative-log IC50 (pIC50) against Dipeptidyl peptidase 8, at Dipeptidyl peptidase 2 and against Prolyl endopeptidase FAP was less than 4.70 throughout.
On to `CC(C)(CC(=O)N[C@@H]1C[C@H]1c1cccc(Cl)c1)NCC(=O)N1C[C@@H](F)C[C@H]1C#N`, for which the results for the pIC50 on Dipeptidyl peptidase 2 and against Prolyl endopeptidase FAP were 5.28 and less than 4.70, respectively.
As for `CC(C)(CC(=O)N[C@H]1C[C@@H]1c1ccc(Cl)cc1)NCC(=O)N1CCC[C@H]1C#N`, the pIC50 against Dipeptidyl peptidase 8, against Dipeptidyl peptidase 2 and against Prolyl endopeptidase FAP was less than 4.70 each time.
For the molecule `CC(C)(CC(=O)N[C@H]1C[C@@H]1c1ccc(F)c(F)c1)NCC(=O)N1CCC[C@H]1C#N`, the pIC50 against Dipeptidyl peptidase 8, against Dipeptidyl peptidase 2 and against Prolyl endopeptidase FAP was less than 4.70 throughout.
As to `CC(C)(CC(=O)N[C@H]1C[C@@H]1c1cccc(C(F)(F)F)c1)NCC(=O)N1CCC[C@H]1C#N`, the negative-log IC50 (pIC50) against Dipeptidyl peptidase 8, at Dipeptidyl peptidase 2 and on Prolyl endopeptidase FAP was less than 4.70 throughout.
In the case of `CC(C)(CC(=O)N[C@H]1C[C@@H]1c1ccc(Cl)c(Cl)c1)NCC(=O)N1CCC[C@H]1C#N`, the pIC50 against Dipeptidyl peptidase 8, against Dipeptidyl peptidase 2 and at Prolyl endopeptidase FAP was less than 4.70 throughout.
As for `CC(C)(CC(=O)N[C@H]1C[C@@H]1c1ccc(C(F)(F)F)cc1)NCC(=O)N1CCC[C@H]1C#N`, the pIC50 on Dipeptidyl peptidase 8, against Dipeptidyl peptidase 2 and on Prolyl endopeptidase FAP was less than 4.70 throughout.
Turning to `CC(C)(CC(=O)N[C@H]1C[C@@H]1c1ccc(F)cc1)NCC(=O)N1CCC[C@H]1C#N`, the pIC50 against Dipeptidyl peptidase 8, on Dipeptidyl peptidase 2 and against Prolyl endopeptidase FAP was less than 4.70 each time.
With `CC(C)(CC(=O)N[C@H]1C[C@@H]1c1ccccc1)NCC(=O)N1CCC[C@H]1C#N`, the negative logarithm of the IC50 (pIC50) against Dipeptidyl peptidase 8 is less than 4.70; on Dipeptidyl peptidase 2, 4.80; against Prolyl endopeptidase FAP, less than 4.70.
In the case of `CC(C)(CC(=O)N[C@H]1C[C@@H]1c1cc(F)cc(F)c1)NCC(=O)N1CCC[C@H]1C#N`, the negative logarithm of the IC50 (pIC50) on Dipeptidyl peptidase 8, against Dipeptidyl peptidase 2 and against Prolyl endopeptidase FAP was less than 4.70 each time.
